Results from PMC13343842, “The accessory protein CvnF8 modulates histidine kinase activity in an actinobacterial G protein system in Streptomyces coelicolor” (mBio, 2026).

Target: T1, CvnA8 (Streptomyces coelicolor, UniProt Q9KYJ8, H183A)
T1 construct: truncated, two N-terminal transmembrane helices removed; printed as 'nucleotides 55–518' (probably residues 55-518); N-terminal 3x Strep tag kept; E. coli BL21(DE3); Strep-Tactin XT and SEC
Experiment: Kinase-Glo Plus luminescence ATP consumption, Michaelis-Menten fit
Assay type: biochemical
Settings: 1.5 µM CvnA8 H183A, 25 mM Tris pH 8.0, 150 mM NaCl, 100 mM MgCl2, 37 °C; 0-300 µM ATP

T1 sequence (Q9KYJ8 entry or part of it H183A): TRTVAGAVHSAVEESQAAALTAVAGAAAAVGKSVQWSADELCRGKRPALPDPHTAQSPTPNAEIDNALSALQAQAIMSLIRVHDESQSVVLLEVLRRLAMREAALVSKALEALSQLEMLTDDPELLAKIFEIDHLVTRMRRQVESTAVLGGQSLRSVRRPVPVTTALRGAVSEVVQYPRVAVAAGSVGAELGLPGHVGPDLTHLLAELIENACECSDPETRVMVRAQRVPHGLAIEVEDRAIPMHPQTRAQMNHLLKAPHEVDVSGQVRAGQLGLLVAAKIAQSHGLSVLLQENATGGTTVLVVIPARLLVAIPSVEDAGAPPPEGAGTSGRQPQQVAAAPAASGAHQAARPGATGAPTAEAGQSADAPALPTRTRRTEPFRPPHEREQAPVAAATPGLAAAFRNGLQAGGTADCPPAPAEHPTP

SMILES: Nc1ncnc2c1ncn2[C@@H]1O[C@H](COP(=O)(O)OP(=O)(O)OP(=O)(O)O)[C@@H](O)[C@H]1O [ATP]
- Kinase-Glo Plus luminescence ATP consumption, Michaelis-Menten fit: drastically reduced in the H183A mutant, which prohibited the calculation of a nominal kcat
